Measured values as given in patent US20260240845A1, “METHODS FOR TREATING OR PREVENTING CORONAVIRUS INFECTION SKELETAL SEQUELAE” (priority 2023, published 2026).
“Also recorded” adds a separate entry of the source.

Legend:
[1] = system: SARS-COV-2-infected hamsters; design: species or system golden Syrian hamsters (Mesocricetus auratus); details: hamster, in vivo
[2] = system: mice injected with SP RBD; design: species or system Balb/c mice; details: mouse, in vivo
C28/12 = assay: Rescue effect of macitentan on SP RBD-induced oxidative stress and mitochondrial dynamics in chondrocytes (CellROX, MitoTracker); assay type: cell-based, human; details: C28/12 pre-treated with 10 μM Macitentan for 30 minutes, then SP RBD 10 μg/ml for 1 h
Procedure: Chondrocyte cell lines C28/12 (human), ATDC5 (mouse) and human umbilical vein endothelial cells (HUVEC) were received as gifts from Prof. Danny Chan from the University of Hong Kong, Prof. Limin Rong from Sun Yat-Sen University and Prof.
Mo Yang from the Hong Kong Polytechnic University respectively. Both chondrocyte cell lines were maintained in DMEM/F12 culture medium supplemented with 5% heat-inactivated FBS, 50 U ml^−1 penicillin and 50 μg ml-^1 streptomycin. HUVEC were cultured in endothelial cell medium with 1% endothelial cell growth supplement and 1% antibiotic solution (ScienCell).
To investigate the rescue effect of Macitentan on RBD-induced oxidative stress accumulation and change in mitochondrial dynamics, cells seeded on coverslips were pre-treated with 10 μM Macitentan for 30 minutes before adding RBD for an hour.
To evaluate cellular oxidative stress, CellROX® Deep Red Reagent solution (Invitrogen) was used according to the manufacturer's instructions. Positive signal was visualized by excitation/emission at 640/665 nm. For visualising mitochondrial morphology, we stained the cells using Mito Tracker® Red CMXRos (Invitrogen) with excitation/emission at 579/599 nm. Cells were then counterstained and mounted by ProLong® Gold antifade reagent with 4′, 6-diamidino-2-phenylindole (DAPI). All the images were captured using Leica TCS SPE Confocal microscope.

[3] = system: SARS-COV-2-infected hamsters; design: species or system golden Syrian hamsters (Mesocricetus auratus); details: hamster, in vivo; remark: listed apart in the source

Question: For `CCCNS(=O)(=O)Nc1ncnc(OCCOc2ncc(Br)cn2)c1-c1ccc(Br)cc1` [macitentan], which “BMD in tibial epiphysis (micro-CT)” value [1] is on record?
Answer: improvement in subchondral bone mass and microstructure; also recorded: significant increase in BMD and BV/TV

Question: And the “BV/TV in tibial epiphysis (micro-CT)” value [1]?
Answer: improvement in subchondral bone mass and microstructure; also recorded: significant increase in BMD and BV/TV

Question: What about the “amount of viral spike protein retained (subchondral bone marrow cavity)” value [1] of the same compound?
Answer: could reduce the amount of viral spike protein retained

Question: What about the articular cartilage structure [1] of the same compound?
Answer: did not lead to further improvement in articular cartilage structurally

Question: What about the chondrocyte dropout [1] of the same compound?
Answer: slight yet not significant improvement

Question: And the cyst formation [1]?
Answer: slight yet not significant improvement

Question: And the “expression level of vWF in bone marrow” value [1]?
Answer: could effectively lower the expression level of vWF

Question: And the “number of SP7+ osteoblast progenitors” value [1]?
Answer: increased the number of SP7^+ osteoblast progenitors

Question: What about the “number of TRAP+ osteoclasts” value [1] of the same compound?
Answer: without affecting the number of TRAP^+ osteoclasts

Question: What about the “number of senescent chondrocytes in articular cartilage (p16INK4a and HMGB1 staining)” value [1] of the same compound?
Answer: effectively lower the number of senescent chondrocytes

Question: And the “oxidative stress near vessels (4HNE staining)” value [1]?
Answer: reduction of oxidative stress near vessels

Question: And the “trabecular number in tibial epiphysis (micro-CT)” value [1]?
Answer: improvement in subchondral bone mass and microstructure

Question: And the “trabecular separation in tibial epiphysis (micro-CT)” value [1]?
Answer: improvement in subchondral bone mass and microstructure

Question: And the “trabecular thickness in tibial epiphysis (micro-CT)” value [1]?
Answer: improvement in subchondral bone mass and microstructure

Question: And the “SP RBD-induced subchondral bone loss (micro-CT, proximal epiphysis of tibia)” value [2]?
Answer: rescue effect of macitentan on SP RBD-induced bone loss

Question: And the “accumulation of senescent chondrocytes (p16INK4a, HMGB1) in articular cartilage” value [2]?
Answer: preventing accumulation of senescent chondrocytes

Question: And the “proteoglycan in articular cartilage (Safranin O/fast green)” value [2]?
Answer: performed better in terms of preserving proteoglycan

Question: And the “paw withdrawal threshold / nociceptive tolerance (von Frey filament test)” value ([2]; ip, 0.3 mg/kg)?
Answer: able to attain the same nociceptive tolerance as high dose after 12 days

Question: What about the “paw withdrawal threshold (von Frey filament test)” value ([2]; ip, 3 mg/kg) of the same compound?
Answer: increase in paw withdrawal threshold after 5 days of treatment; also recorded: faster analgesic effect at the higher dose

Question: And the “SP RBD-induced cellular oxidative stress (CellROX staining)” value (C28/12)?
Answer: effectively lowered SARS-COV-2 spike protein-induced increase in oxidative stress

Question: And the “mitochondrial dynamics / morphology (MitoTracker staining)” value (C28/12)?
Answer: showed restoration of rod-like structures

Question: And the “4HNE expression level in bone marrow cavity of subchondral bone (oxidative stress)” value [3]?
Answer: lowered vWF and 4HNE expression level

Question: And the “BV/TV (micro-CT)” value [3]?
Answer: no significant difference

Question: What about the “amount of viral spike protein at local joint tissue (subchondral bone marrow cavity)” value [3] of the same compound?
Answer: tended to lower the amount of viral spike protein

Question: And the “area of the cysts at the osteochondral junction” value [3]?
Answer: effectively reducing the area of the cysts

Question: And the articular surface roughness [3]?
Answer: No statistical significance

Question: What about the “collagen loss (Masson's trichrome staining)” value [3] of the same compound?
Answer: prevented virus-induced collagen loss

Question: And the “fibrin exudate at the osteochondral junction” value [3]?
Answer: decreasing the fibrin exudate

Question: What about the “number of SP7+ osteoblasts progenitors” value [3] of the same compound?
Answer: without affecting the number of SP7^+ osteoblasts progenitors

Question: What about the “number of TRAP+ osteoclasts in subchondral bone” value [3] of the same compound?
Answer: significantly lower number of TRAP^+ osteoclasts

Question: What about the “number of chondrocytes in articular cartilage” value [3] of the same compound?
Answer: More chondrocytes were observed

Question: And the “number of cytoplasmic HMGB1 cells in articular cartilage” value [3]?
Answer: decrease in the number of nuclear p16^INK4a and cytoplasmic HMGB1 cells

Question: And the “number of nuclear p16INK4a cells in articular cartilage” value [3]?
Answer: decrease in the number of nuclear p16^INK4a

Question: What about the “subchondral BMD (micro-CT)” value [3] of the same compound?
Answer: could restore subchondral BMD

Question: What about the “vWF expression level in bone marrow cavity of subchondral bone” value [3] of the same compound?
Answer: lowered vWF and 4HNE expression level
